Data from the supplement of paper PMC10307832.

Assays:
Assay in all cases: relative viability (nuclei count vs DMSO), 5 days (fraction); higher = more cells survive
Trametinib + Dasatinib = compound: CC(=O)Nc1cccc(-n2c(=O)n(C3CC3)c(=O)c3c(Nc4ccc(I)cc4F)n(C)c(=O)c(C)c32)c1 [Trametinib] + Cc1nc(Nc2ncc(C(=O)Nc3c(C)cccc3Cl)s2)cc(N2CCN(CCO)CC2)n1 [Dasatinib] (partner 0.075 µM)
In short: (§1)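 Lung cancer cell lines, seeded in 1536-well plates, were treated the following day by pin tool with a single drug or with five library-drug doses (not always all listed) in √10 steps on top of a fixed anchor-drug dose. Cells were fixed and nuclei stained in one step after 5 days, and nuclei were counted. Relative viability is the nuclei count for treated wells divided by that for vehicle wells, reported as medians of duplicate plates.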

[1] = compound: CN1C=C(C2=CC=CC=C21)/C=C\3/C4=C(C=CC=N4)NC3=O + O=C(CCCCCCC(=O)Nc1ccccc1)NO [Vorinostat] (partner 1 µM)
In short: as §1

Trametinib + Palbociclib = compound: CC(=O)Nc1cccc(-n2c(=O)n(C3CC3)c(=O)c3c(Nc4ccc(I)cc4F)n(C)c(=O)c(C)c32)c1 [Trametinib] + CC(=O)c1c(C)c2cnc(Nc3ccc(N4CCNCC4)cn3)nc2n(C2CCCC2)c1=O [Palbociclib] (partner 0.5 µM)
In short: as §1

Trametinib + Alpelisib = compound: CC(=O)Nc1cccc(-n2c(=O)n(C3CC3)c(=O)c3c(Nc4ccc(I)cc4F)n(C)c(=O)c(C)c32)c1 [Trametinib] + Cc1nc(NC(=O)N2CCC[C@H]2C(N)=O)sc1-c1ccnc(C(C)(C)C(F)(F)F)c1 [Alpelisib] (partner 2 µM)
In short: as §1

Cell Line	relative viability (Trametinib + Dasatinib; first compound 0.0025 µM)	relative viability (Trametinib + Dasatinib; first compound 0.007906 µM)	relative viability (Trametinib + Dasatinib; first compound 0.025 µM)	relative viability (Trametinib + Dasatinib; first compound 0.07906 µM)	relative viability (Trametinib + Dasatinib; first compound 0.25 µM)	relative viability ([1]; first compound 0.02 µM)	relative viability ([1]; first compound 0.06325 µM)	relative viability ([1]; first compound 0.2 µM)	relative viability ([1]; first compound 0.6325 µM)	relative viability ([1]; first compound 2 µM)	relative viability (Trametinib + Palbociclib; first compound 0.0025 µM)	relative viability (Trametinib + Palbociclib; first compound 0.007906 µM)	relative viability (Trametinib + Palbociclib; first compound 0.025 µM)	relative viability (Trametinib + Palbociclib; first compound 0.07906 µM)	relative viability (Trametinib + Palbociclib; first compound 0.25 µM)	relative viability (Trametinib + Alpelisib; first compound 0.0025 µM)	relative viability (Trametinib + Alpelisib; first compound 0.007906 µM)	relative viability (Trametinib + Alpelisib; first compound 0.025 µM)	relative viability (Trametinib + Alpelisib; first compound 0.07906 µM)	relative viability (Trametinib + Alpelisib; first compound 0.25 µM)
COR-L23	0.446	0.449	0.502	0.484	0.246	0.452	0.433	0.42	0.479	0.396	0.317	0.246	0.191	0.143	0.14	0.766	0.723	0.668	0.436	0.241
NCI-H1755	0.409	0.433	0.492	0.427	0.322	0.601	0.751	0.477	0.584	0.643	0.425	0.406	0.384	0.392	0.365	0.798	0.83	0.799	0.802	0.753
LOU-NH91	0.528	0.498	0.468	0.426	0.296	0.816	0.851	0.789	0.809	0.848	0.604	0.524	0.561	0.552	0.453	0.674	0.601	0.619	0.545	0.4
EMC-BAC-2	0.352	0.407	0.419	0.443	0.365	0.849	0.441	0.39	0.261	0.214	0.581	0.555	0.495	0.502	0.357	0.645	0.641	0.562	0.568	0.497
NCI-H2023	0.484	0.485	0.515	0.34	0.221	0.697	0.562	–	0.56	0.502	0.348	0.3	0.24	0.196	0.119	0.38	0.486	0.315	0.352	0.288
EKVX	0.398	0.492	0.31	0.226	0.221	0.537	0.627	0.641	0.631	0.638	0.375	0.401	0.173	0.182	0.182	0.832	0.638	0.629	0.444	0.343
NCI-H2085	0.215	0.185	0.233	0.213	0.222	0.723	0.757	0.746	0.735	0.784	0.494	0.421	0.371	0.395	0.406	0.916	0.757	0.635	0.655	0.608
NCI-H3122	0.767	0.512	0.13	0.144	0.146	0.767	1.06	0.734	1.02	1	0.189	0.158	0.125	0.112	0.101	0.466	0.395	0.224	0.234	0.21
HCC-827	0.301	0.243	0.246	0.144	0.157	0.721	0.87	–	0.703	0.714	0.461	0.395	0.423	0.296	0.289	1.01	0.753	0.699	0.591	0.399
HARA	0.225	0.275	0.367	0.18	0.185	0.511	0.524	0.531	0.491	0.5	0.236	0.202	0.205	0.192	0.198	0.758	0.657	0.44	0.498	0.241
NCI-H441	0.37	0.49	0.249	0.287	0.206	0.807	0.752	0.833	0.694	0.793	0.154	0.172	0.132	0.147	0.132	0.836	0.659	0.638	0.533	0.33
SK-MES-1	0.324	0.313	0.208	0.171	0.156	1.07	0.995	0.864	1.07	0.984	0.358	0.357	0.319	0.354	0.26	0.722	0.542	0.323	0.31	0.184
HCC-15	0.287	0.214	0.163	0.135	0.121	0.915	0.824	0.867	0.74	0.706	0.704	0.427	0.307	0.232	0.222	0.645	0.436	0.275	0.204	0.148
ABC-1	0.539	0.467	0.365	0.384	0.371	1.29	0.899	0.926	1.05	0.834	0.448	0.668	0.357	0.49	0.338	0.729	0.703	0.564	0.583	0.554
EPLC-272H	0.275	0.231	0.215	0.138	0.12	0.486	0.379	0.465	–	0.404	0.293	0.303	0.262	0.207	0.239	0.721	0.539	0.438	0.438	0.346
NCI-H2009	0.203	0.169	0.143	0.168	0.157	0.69	0.671	0.748	0.766	0.683	0.138	0.135	0.109	0.135	0.125	0.88	0.72	0.444	0.485	0.362
